# What was measured:
# [1] = system: Hex and Isl-1 expression; test: In situ hybridization of Hex and Isl-1 in avian embryos after EtOH exposure with or without FA; type: in vivo, avian (chick); details: 30% EtOH; HH stage 4; 8 hour incubation
# [2] = system: C57BL/6 mouse embryos; details: in vivo
# [3] = system: avian embryos
# [4] = system: C57BL/6 mouse embryos; test: Morphometric parameters and resorptions of E15.5 mouse embryos with ethanol exposure and FA diet; type: in vivo
# From the text: The C57Bl/6 mouse strain (Jackson Laboratories) was used.
# [5] = system: HTR-8/SVneo cells; test: In vitro wound assay of human trophoblast cell migration; type: cell-based; details: HCy exposure experiments; scrape wound
# From the text: In previous studies by the inventors analyzing the effects of lithium and the metabolite homocysteine (HCy) on early heart development, the results were similar. Both factors inhibited Wnt/β-catenin-mediated gene expression during induction stages of cardiogenesis. […] Folate protects the embryo from these adverse effects (Han et al., 2009). It was also noted that normal placental development was adversely affected by Li and HCy. A human trophoblast cell line, HTR-8/SVneo cells, was used to determine whether Li or HCy affect the migration of these cells in vitro and whether FA or FA/myo-inositol would protect the cells from adverse effects of the two cardiac teratogens. HCy exposure experiments were conducted. […] The wound edges are depicted by a white line in B. In panel A, it can be seen that the wound area is smaller. Administration of a combination of FA/myo-inositol, FA alone or myo-inositol alone, enhanced the expression of NMHC-IIB and FN to facilitate cell migration.
# [6] = system: chick embryos; test: Early embryonic chick culture: heart development (MF20) after HCy, Li or Wnt3A exposure, FA/inositol rescue; type: in vivo, chick (Gallus gallus)
# Procedure: Pathogen-free White Leghorn chick (Gallus gallus; Charles River, Mass.) and quail (Coturnix coturnix japonica; Strickland Farms, Ga.) embryos were used to analyze the effects of HCy on early embryogenesis. The early processes of heart development are well conserved among vertebrates and the avian model allows for more precise timing of exposure in early embryos. The incubation methodology using agarose-albumin has been described previously (Darnell and Schoenwolf, 2000). Briefly, the experimental paradigm involved exposing specific early stages of chick embryos, at HH stages 4 to 7 (Hamburger and Hamilton, 1951), to different concentrations of HCy (L-homocysteine thiolactone hydrochloride, Sigma) made up in physiological saline. Final concentrations of HCy included 30 μM, 50 μM, 75 μM and 100 μM. The minimal teratogenic dose was determined empirically to be 50 μM. This fit within the concentration range of 30 μM to 300 μM used by others that induced heart defects at later stages of development (Boot et al., 2004). Control embryos were incubated using the vehicle, physiological saline, in the agarose-albumin medium. Control and experimental cultures were incubated on the agarose-albumin plates for either 8 or 24 hours.
# Carrier-free, recombinant mouse Wnt3A was purchased from R&D Systems (Minneapolis, Minn.). Wnt3A concentrations were empirically tested to find those that would induce cardiac defects but maintain embryonic viability. Wnt3A was tested at concentrations of 2 ng, 10 ng, 20 ng, 50 ng and 100 ng per ml. Concentrations of 2 ng/ml and 10 ng/ml were both effective in inducing cardiac defects. Both Wnt3A concentrations were used in the FA rescue experiments, as described. For the FA rescue experiments, folate (folic acid, Sigma-Aldrich) was added at a concentration of 2 μg, 5 μg or 10 μg per ml. […] For the experiments using inositol (myo-inositol, Sigma) supplementation, a concentration of 50 mg/ml was used.
# The main embryonic defects related to the timing of embryonic exposure; the regions that were primarily affected related to an anterior-to posterior (AP) wave of development along this embryonic axis. The exposure effects ranged from early effects (e.g. no cardiac tissue, heart development occurring anterior to neural tissue, cardiabifida) to later effects, such as wide hearts and left looping (Table 1). The cardiac phenotypes observed with early HCy exposure were similar, although not identical, to those obtained from previous studies of Li exposure on avian heart development (Manisastry et al., 2006). The Wnt/β-catenin modulated genes Hex and Isl1 in the chick embryo also were similarly repressed with HCy, as with Li in the chick cardiogenic region. […] Investigation of regulatory gene activity in chick embryos indicates Li, HCy and Wnt3A suppress Wnt-modulated genes Hex and Islet-1 in the heart fields.
# To define the effective dose of Wnt3A needed to induce cardiac dysmorphogenesis, Wnt3A was tested at concentrations of 2 ng, 10 ng, 20 ng, 50 ng, and 100 ng per ml. The minimal effective doses of Wnt3A that induced cardiac and neural anomalies were 2 ng/ml and 10 ng/ml, respectively. Using these concentrations, the inventors analyzed whether FA supplementation of media at 10^3-fold higher concentrations, that is 2 μg/ml or 10 μg/ml, would provide protection against the augmentation of canonical Wnt3A signaling.
# [7] = system: Hex and Islet-1 (Isl1) gene expression; test: In situ hybridization of Hex and Isl1 in avian heart fields after Li, HCy or Wnt3A with or without FA; type: in vivo, chick; details: 8 hours of exposure; HH stages 3+/4
# Procedure: In situ hybridizations on control and experimentally manipulated chick embryos were carried out using digoxigenin-labeled riboprobes with alkaline phosphatase detection (Linask et al., 2001). Images of whole-mounted chick embryos were taken with a Nikon DS-L2 camera unit. Probes for chick Hex were provided by Parker Antin, University of Arizona and probes for chick Islet-1 (Isl1) were provided by Thomas Jessell, Columbia University, NY.
# Chick embryos (HH stages 3+/4) were incubated on agarose albumin supplemented with HCy (50 μM). Instead of giving a single injection in ovo, embryos were exposed to HCy for 8 hours in order to define the effect on early cardiac gene expression. Another group of embryos were exposed to HCy for 24 hours at which time the effects on gene expression were determined. To analyze the effects during the looping stages, incubation was stopped after between 22 and 24 hours. After the 8-hour incubation, Li and HCy suppressed Hex and Isl1 expression in the cardiogenic crescent (FIG. 5).
# The inventors next analyzed whether FA rescues the downregulation of Hex and Isl1. Chick embryos were exposed to Li, HCy or Wnt3A, as above, with and without 10 μg/ml of FA; the experiments were terminated after either an 8-hour or 24-hour exposure period, at which time in situ hybridizations for gene expression were performed. After 8 hours of exposure, Li, HCy and Wnt3A all suppressed Hex (FIGS. 9D, G, J) and Isl1 (FIGS. 10D, G, J) compared with the control embryonic expression patterns (FIG. 9A; FIG. 10A). […] Thus, FA supplementation suppressed the potentiation of the inhibitory Wnt signaling, allowing for normal induction of Hex and Isl1 gene expression.
# [8] = 30% EtOH 2.9 g/Kg twice i.p. on E6.75
# [9] = 30% EtOH 3.5 g/Kg once i.p. on E6.75
# [10] = HH stage 3 +/4, HCy 50 μM, Li 50 μM, FA 10 μM, inositol 280 mM
molecule,measurement,setting,value
"CCO [EtOH, ethanol]",Hex and Isl-1 expression in the heart fields,[1],suppressed
same,DAPI,[2],1.73
same,DVPI,[2],1.21
same,E/A Ratio,[2],0.29
same,HR,[2],205 bpm
same,ICT %,[2],10.09%
same,IRT %,[2],14.93%
same,MPI,[2],0.62
same,OF,[2],26.37 cm/s
same,RR,[2],293 ms
same,UAPI,[2],1.75
same,abnormalities after one i.p. injection of 3.5 g/kg,[2]; ip,did not produce any abnormalities
same,outcome after one i.p. injection of 4.5 g/kg,[2]; ip,"cardiac abnormalities, but the pregnant mouse appeared sickly"
same,embryos with cardiac valve anomalies,"[3]; 25% and 30% EtOH, stage 4",68%
same,embryos with normal heart development,"[3]; 25% and 30% EtOH, stage 4, FA (10 mg/ml) concurrently, in vitro and in ovo",32%
same,morphological defects,[3]; EtOH in vitro at HH stage 4,delayed growth and severe cardiac malformations
same,effects of 10% EtOH in ovo,"[3]; quail eggs stage 4, microinjected into airspace",no adverse effects
same,teratogenic EtOH dose,[3]; stage 4 avian embryos,25-30%
same,Body Weight,[4]; [8],0.37 g
same,CRL,[4]; [8],12.63 min
same,Placenta Weight,[4]; [8],0.10 g
same,Body Weight,[4]; [9],0.35 g
same,CRL,[4]; [9],11.40 min
same,Placenta Weight,[4]; [9],0.09 g
"O[C@H]1[C@H](O)[C@@H](O)[C@H](O)[C@@H](O)[C@H]1O [Inositol, myo-inositol]",expression of NMHC-IIB and FN,[5],enhanced
same,% Normal Hearts,[6]; [10],60%
same,Abnormal (number of embryos),[6]; [10],2
same,Normal (number of embryos),[6]; [10],3
same,% Normal Hearts,"[6]; HH stage 3 +/4, HCy 50 μM, Li 50 μM, FA 10 μM, inositol 280 mM, listed as Inositol only",60%
Wnt3A,Hex and Isl1 expression in the cardiogenic crescent,[7],suppressed
same,embryos with normal hearts / normal heart development,"[6]; Wnt3A exposure at HH stages 3+/4, Wnt 2 ng, FA 10 μg",18%
same,minimal effective dose that induced cardiac anomalies,[6]; in vivo,2 ng/mL
same,minimal effective dose that induced neural anomalies,[6]; in vivo,10 ng/mL
